PMC9249808, “A novel lipidic peptide with potential to promote balanced effector-regulatory T cell responses” (Scientific Reports, 2022)

How the values were obtained:
[1] = system: CD4+ T cells within PBMC cultures; assay: Intracellular IFN-γ in CD4+ T cells within PBMC cultures (flow cytometry); type: cell-based, human; details: anti-CD3, 24 h, MFI, n = 4, Fig. 5c
Description: PBMCs were resuspended in RPMI-10 (RPMI-1640; ThermoFisher) supplemented with 10% heat inactivated Foetal Bovine Serum (LabTech), 100 U/mL penicillin, 100 µg/mL streptomycin (ThermoFisher), 2 mM L-glutamine (ThermoFisher), and 50 µM β-mercaptoethanol (ThermoFisher) at 1 × 10^6 cells/mL and plated at a density of 1 × 10^5 per well (100 µL) in 96-well, flat-bottom culture plates. PBMCs were stimulated with 1 µg/mL of soluble anti-CD3 (BioLegend). The lipidic peptide, IK14004, and IK14000, i.e., […] minus conjugation to [{2}Adod]4, were solubilised as a 1 mM stock solution in sterile milliQ water (Lonza) and added to wells at a final volume of 50 µL per well together with soluble anti-CD3 (1 µg/mL final, 50 µL per well) (Biolegend). To test the effect of peptides, cells were cultured for 24–72 h at 37 °C and 5% CO2. Vehicle controls in peptide-based experiments comprised 0.13% sterile milliQ water in culture medium whereas 0.1% DMSO in culture medium was used as vehicle control for comparison with the Lck inhibitor, A-770041, in the absence of peptides. […]

[2] = system: Lck-WT protein; assay: Lck binding assay (non-cell-based ELISA); details: peptide coated 10 µg/mL in PBS, 4 °C 20 h; Lck-WT (mCherry, c-myc tag) 2 h room temperature, HRP anti myc, 450 nm; duplicate experiments, 3 technical replicates; negative control PBS; Fig. 6b
Description: Lck wild-type (Lck-WT) was prepared in CHO cells. The plasmid for the expression of Lck-WT protein was kindly provided by the research laboratory of Professor Katarina Gaus. The plasmid was encoded for mammalian cell expression of the Lck-WT protein with a C-terminal mCherry reporter. A twin-strep tag was incorporated at the N-terminal of the Lck-WT for purification, and a c-myc epitope tag was placed at the C-terminal, after mCherry for detection of protein expression. A midiprep DNA preparation of the plasmid was performed using the Macherey–Nagel Midi kit as per manufacturer’s instructions. For transient transfections plasmid DNA was transfected into CHO-S cells using 2 μg DNA mL^−1 cells at a concentration of 3 million cells mL^−1. DNA was complexed with polyethylenimine-Pro (PolyPlus) in Opti-Pro serum free medium (Life Technologies) at a DNA (μg) to PEI (μL) ratio of 1:4 (w:v) for 15 min prior to transfecting suspension adapted CHO cells. […]
The peptides, IK14004 and IK14000, were reconstituted into PBS at 1 mg/mL. […] 100 µL of 2 M sulphuric acid was added to stop the reaction and the absorbance values recorded at a wavelength of 450 nm using SpectraMax (Molecular Devices).

[3] = system: Lck; assay: Kinase profiling, Lck; type: biochemical; details: Eurofins KinaseProfiler, [γ-33P-ATP] scintillation, 0.003-10 uM, 2% DMSO, no pre-incubation, Fig. 6c, 6e
Description: Non-cell-based kinase profiling assays were performed by Eurofins (France). All compounds were prepared to 50 × final assay concentration in 100% DMSO. This working stock of the compound was added to assay wells as the first component in the reaction, followed by the remaining components as detailed in the specific assay protocols below. In the standard KinaseProfiler service, there was no pre-incubation step between the compound and the kinase prior to initiation of the reaction. Control wells contained all components of the reaction, except the compound of interest; however, DMSO (at a final concentration of 2%) was included in these wells to control for solvent effects. […] The reference inhibitors for each kinase are indicated in the methods for each kinase assay. […] Kinase activities were assessed in the presence of compounds at a concentration range of 0.003 -10 uM and the following kinases were tested: c-Src, Lck, Jak1, Jak2, Tyk2, CaMKIV and HPK1 (MAP4K1). Reactions between IK14004, substrates and MgAcetate/[γ^33P-ATP] mixes for each respective kinase were stopped by the addition of phosphoric acid and reaction mixtures spotted on P30 filtermats for scintillation according to the detailed methods available from Eurofins. The activities of Lck and c-Src were also assessed in the presence of the unconjugated components of IK14004, i.e., […] (IK14000) and the dodecanoic acid moiety [(2)Adod]4 (IK00041) and a lipidic peptide containing substituted amino acid residues (IK14DE04).

Which results are given for RSKAKNPLYR [IK14000]?
intracellular expression of IFN-γ in CD4+ T cells [1]: unchanged; binding to Lck [2]: no different to the negative control; Lck activity [3]: neither IK14000 nor IK00041 had an effect
